# Laboratory results reported in patent US20240425499A1, “TYRO3 INHIBITORS” (HALIA THERAPEUTICS, INC., priority 2021, published 2024).
# Molecular target: recombinant human TYRO3 (Homo sapiens (Human), UniProt Q06418)
# Test: TYRO3 enzymatic assay (radiometric [32P]-ATP, Poly(Glu,Tyr) substrate)
# Type: biochemical
# Settings: recombinant human TYRO3, [32P]-ATP
# Procedure: Poly(Glu, Tyr) sodium salt (Glu:Tyr (4:1), quality level 200, molecular weight 5,000-20,000, obtained from Sigma Aldrich, catalogue #P7244, assay concentration 0.20 mg/mL) and recombinant human TYRO3 (obtained from ThermoFisher Scientific, catalogue #PV3828, assay concentration 2 nM) were mixed in assay buffer (20 mM Hepes pH 7.5, 10 mM MgCl2, 1 mM EGTA, 0.02% Brij35, 0.02 mg/ml BSA, 0.1 mM Na3VO4, 2 mM DTT, 1% DMSO, with added MnCl2 at a final concentration of 2 mM). Compounds of interest (in DMSO, serial 3-fold dilution from 10 μM to 0.5 nM) or control (1% DMSO) were dispensed into the kinase reaction mixture by Acoustic technology (Echo550; nanoliter range). After incubation at room temperature for 20 minutes, the kinase reaction was initiated by addition of [^32P]-ATP (Specific activity 10 μCi/μl) and the mixture was incubated at room temperature for 2 hours. The reaction was then stopped by spotting the reaction mixture on strips of phosphocellulose P81 paper. Following washing, the radioactivity of the P81 paper was measured and kinase activity data were expressed as the percent remaining kinase activity in test samples compared to vehicle (dimethyl sulfoxide) reactions. IC50 values and curve fits were obtained using Prism (GraphPad Software).
# Chain of recombinant human TYRO3 (Q06418 41-890): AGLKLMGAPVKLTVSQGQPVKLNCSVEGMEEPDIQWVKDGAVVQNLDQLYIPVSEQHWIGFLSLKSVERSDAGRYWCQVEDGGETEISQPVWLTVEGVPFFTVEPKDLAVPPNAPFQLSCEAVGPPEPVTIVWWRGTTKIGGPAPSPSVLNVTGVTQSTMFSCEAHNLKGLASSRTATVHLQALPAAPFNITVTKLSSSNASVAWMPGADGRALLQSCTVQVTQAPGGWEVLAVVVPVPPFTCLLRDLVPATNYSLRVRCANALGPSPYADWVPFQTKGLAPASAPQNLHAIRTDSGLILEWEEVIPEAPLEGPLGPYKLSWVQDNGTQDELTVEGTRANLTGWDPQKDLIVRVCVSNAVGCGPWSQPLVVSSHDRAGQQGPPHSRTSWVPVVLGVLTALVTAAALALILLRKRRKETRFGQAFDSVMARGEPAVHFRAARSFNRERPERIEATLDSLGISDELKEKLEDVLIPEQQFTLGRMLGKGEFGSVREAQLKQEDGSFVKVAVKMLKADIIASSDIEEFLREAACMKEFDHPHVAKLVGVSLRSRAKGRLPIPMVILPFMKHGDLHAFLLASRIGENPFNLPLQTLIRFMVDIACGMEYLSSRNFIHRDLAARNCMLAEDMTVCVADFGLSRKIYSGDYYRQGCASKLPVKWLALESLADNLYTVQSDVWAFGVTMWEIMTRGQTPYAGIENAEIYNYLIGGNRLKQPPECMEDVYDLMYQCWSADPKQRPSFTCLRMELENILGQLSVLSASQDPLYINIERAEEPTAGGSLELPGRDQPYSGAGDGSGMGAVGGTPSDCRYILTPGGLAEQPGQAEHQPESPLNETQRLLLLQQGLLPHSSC
row,IC50,SMILES
1,51 to 150 nM,"Cc1ccc(-c2c[nH]c3ncc(-c4ccc(CN5CCCC(O)C5)cc4)cc23)cn1 (stereo not shown) [compound 20, 1-(4-(3-(6-methylpyridin-3-yl)-1H-pyrrolo[2,3-b]pyridin-5-yl)benzyl)piperidin-3-ol]"
2,151 to 500 nM,"CCOC1CN(Cc2ccc(-c3cnc4[nH]cc(-c5ccc(OC)nc5)c4c3)cc2)C1 [compound 36, 5-(4-((3-ethoxyazetidin-1-yl)methyl)phenyl)-3-(6-methoxypyridin-3-yl)-1H-pyrrolo[2,3-b]pyridine]"
3,151 to 500 nM,"OCc1[nH]c2ncc(-c3ccc(CN4CCCC(O)C4)cc3)cc2c1-c1cccc(F)c1 (single isomer, unassigned; enantiomer 1) [compound 88, 1-(4-(3-(3-fluorophenyl)-2-(hydroxymethyl)-1H-pyrrolo[2,3-b]pyridin-5-yl)benzyl)piperidin-3-ol Enantiomer 1]"
4,51 to 150 nM,"CC(C)Oc1ccc(-c2c[nH]c3ncc(-c4ccc(CN5CCCC(O)C5)cc4)cc23)cc1C#N (stereo not shown) [compound 19, 5-(5-(4-((3-hydroxypiperidin-1-yl)methyl)phenyl)-1H-pyrrolo[2,3-b]pyridin-3-yl)-2-isopropoxybenzonitrile]"
5,51 to 150 nM,"COc1ccc(-c2c[nH]c3ncc(-c4ccc(CN5CC(OC)C5)cc4)cc23)cn1 [compound 35, 5-(4-((3-methoxyazetidin-1-yl)methyl)phenyl)-3-(6-methoxypyridin-3-yl)-1H-pyrrolo[2,3-b]pyridine]"
6,51 to 150 nM,"COc1ccc(-c2c[nH]c3ncc(-c4ccc(CN5CCC(OC)CC5)cc4)cc23)cn1 [compound 34, 5-(4-((4-methoxypiperidin-1-yl)methyl)phenyl)-3-(6-methoxypyridin-3-yl)-1H-pyrrolo[2,3-b]pyridine]"
7,51 to 150 nM,"COc1ccc(-c2c[nH]c3ncc(-c4ccc(CN5CCCC(C)(O)C5)cc4)cc23)cn1 (stereo not shown) [compound 30, 1-(4-(3-(6-methoxypyridin-3-yl)-1H-pyrrolo[2,3-b]pyridin-5-yl)benzyl)-3-methylpiperidin-3-ol]"
